# Tests used:
# [1] = test system: HepG2 cells; test: Biocompatibility study, CCK-8 assay; assay type: cell-based; settings: 24 h exposure to 10 μM
# Method: Inspired by the excellent responsiveness of the probe hCy-Tf-CA to O2·^−, its biocompatibility and potential for further applications in living cells were assessed. HepG2 cells were plated in a 96-well plates at […] and incubated overnight in the cell incubator. Then the cells were washed with culture medium and incubated with various concentrations of hCy-Tf-CA (1, 2, 4, 8, 10 μM) at 37° C. for 24 h. After removing the above solution, CCK-8 reagent diluted with culture medium was added to each well and incubated at 37° C. for 60 min. Finally, the absorbance was finally measured at 450 nm by a microplate reader. Cell viability was calculated using the following formula:
# Calculation of cell viability: Cell viability (%)=(Aexperimental group−Ablank group)/(Acontrol group−Ablank group)×100%.
# [2] = test system: mouse model of drug-induced hepatic inflammation; test: Fluorescence/photoacoustic dual-modal imaging of drug-induced (APAP) hepatic inflammation; assay type: in vivo, Balb/c female mice
# Method: In order to visually detect hepatic O2·^− concentration and drug-induced hepatic inflammation by fluorescence/photoacoustic dual-modal imaging, Balb/c female mice were intraperitoneally injected with overdose of APAP (300 mg/Kg) to cause drug-induced hepatic inflammation, and PBS injected mice served as the control group. The probe hCy-Tf-CA (50 μM, 100 μL) were administrated intravenously for in vivo fluorescence/photoacoustic dual-modal imaging. Images at predetermined time points were recorded on IVIS imaging system (Perkin Elmer, λex=675 nm, λem=760 nm) and InVision 256-TF imaging system (iThera Medical, λex=710 nm).
# [3] = test system: HepG2 cells; test: Fluorescence imaging of endogenous O2·^− in HepG2 cells; assay type: cell-based
# Method: To evaluate the capacity of hCy-Tf-CA to image O2·^− fluctuation in living cells, HepG2 cells were plated in a glass-bottom dish for 24 h to 80% density before the experiment. Cell fluorescence imaging of hCy-Tf-CA was divided into five groups. In the first group, hCy-Tf-CA (10 μM) was incubated with cells for 30 min. In the second group, cells were pretreated with lipopolysaccharide (LPS, 1 μg/mL) and interferon-gamma (IFN-γ, 50 ng/mL) for 12 h, then washed twice with PBS buffer before incubating with hCy-Tf-CA (10 μM) for 30 min. In the third group, cells were pretreated with LPS (1 μg/mL), IFN-γ (50 ng/mL) and 2,2,6,6-tetramethylpiperidine-N-oxyl (TEMPO, 300 μM) for 12 h, then washed twice with PBS buffer before incubating with hCy-Tf-CA (10 μM) for 30 min. In the fourth and fifth groups, cells were pretreated with H2O2 or Na2SO3 (100 μM) for 30 min, then washed twice with PBS buffer before incubating with hCy-Tf-CA (10 μM) for 30 min. The cells were washed 3 times with PBS buffer before cell imaging. Fluorescence images of the cells were captured by a Nikon AX R microscope with DAPI channel (λex'404 nm, λem=425-475 nm) and Cy5.5 channel (λex=639 nm, λem=663-738).
# [4] = Selective response: fluorescence against potential interferents; settings: probe 10 μM
# Method: The specificity of hCy-Tf-CA was determined against various potential interferents (Na^+, K^+, Ca^2+, Mg^2+, Zn^2+, Cu^2+, HS^−, HClO, H2O2, ·OH, ONOO^−, glucose, glutathione, cysteine, vitamin C, nitroreductase, alkaline phosphatase, β-galactosidase and leucine aminopeptidase). Under the same experimental conditions, 10 μL of probe stock solution (1 mM) was added to 1 mL of ethanol-phosphate buffer solution. Then stock solutions of various potential interferents were respectively added to above solution, then the fluorescence intensity at 730 nm was tested. […] Therefore, these potential interferents barely effect on the selective response to O2·^−, implying that the probe hCy-Tf-CA prepared by the invention has good selectivity.
# [5] = test system: mouse model of autoimmune hepatitis; test: Fluorescence/photoacoustic dual-modal imaging of autoimmune hepatitis (Con A); assay type: in vivo, Balb/c female mice
# Method: In order to visually detect autoimmune hepatitis by fluorescence/photoacoustic dual-modal imaging, Balb/c female mice were intravenously injected with a single dose Con A (20 mg/Kg, dissolved in 100 μL PBS) for 2 h to induce early autoimmune hepatitis, and the remaining mice were treated with PBS solution as controls. hCy-Tf-CA was then intravenously injected into mice for in vivo imaging, and representative NIRF/PA dual-modal images of different treated mice were recorded at chosen times. Images at predetermined time points were recorded on IVIS imaging system (Perkin Elmer, λex=675 nm, λem=760 nm) and InVision 256-TF imaging system (iThera Medical, λex=710 nm).
# [6] = Photoacoustic response of hCy-Tf-CA to O2·^−; settings: probe 10 μM, O2·^− 100 μM, 10 min
# Method: (§1) 10 μL of probe stock solution (1 mM) was added to 1 mL of ethanol-phosphate buffer solution (ethanol/PBS=1/1, v/v, pH=7.4). To characterize the responsiveness of hCy-Tf-CA, 40 μL O2·^− stock solution (2.5 mM) was added to above solution.
# The reaction system was prepared under the same experimental conditions. […] The photoacoustic signal of hCy-Tf-CA only at 710 nm is very weak (FIG. 3).
# Under the same experimental conditions, 10 μL of probe stock solution (1 mM) was added to 1 mL of ethanol-phosphate buffer solution, the O2·^− titration experiment then was carried out and the photoacoustic intensity at 710 nm were tested 10 minutes later.
# [7] = Fluorescence response of hCy-Tf-CA to O2·^− in ethanol-phosphate buffer
# Method: as §1
# The reaction system was prepared under the same experimental conditions. […] That is due to the nucleophilic O2·^− cleavage of trifluoromethonium sulfonate, which restored the strong electron-donating phenol and it-conjugation on the fluorophore. […] The probe hCy-Tf-CA is an enhanced fluorescence probe.
# Under the same experimental conditions, 10 μL of probe stock solution (1 mM) was added to 1 mL of ethanol-phosphate buffer solution, the O2·^− titration experiment was then carried out. The fluorescence intensity at 730 nm were tested 10 minutes later. […] (FIGS. 4 and 5).
structure (smiles),measurement,setting,value
C[C@H](CCC(=O)NCCC[N+]1=C(/C=C/C2=C3Oc4cc(OS(=O)(=O)C(F)(F)F)c(Cl)cc4C=C3CCC2)C(C)(C)c2c1ccc1ccccc21)[C@H]1CC[C@H]2[C@@H]3[C@H](O)C[C@@H]4C[C@H](O)CC[C@]4(C)[C@H]3C[C@H](O)[C@]12C [hCy-Tf-CA],cell viability,[1],more than 90%
same,"ex vivo hepatic fluorescence signal, APAP-treated mice versus health mice",[2]; 2 h after intravenous administration,obviously higher
same,ex vivo organ distribution of fluorescence signal,"[2]; 2 h after intravenous administration, liver versus heart, spleen, lung and kidney",mainly located in the liver
same,"in vivo fluorescence signal intensity, APAP-treated mice versus control mice","[2]; 2 h post-injection, probe 50 μM 100 μL i.v., APAP 300 mg/Kg i.p.",significantly higher
same,"photoacoustic signal in the liver, APAP-treated mice versus healthy mice","[2]; λex=710 nm, cross-sectional images",significantly higher
same,intracellular fluorescence after LPS/IFN-γ in the presence of TEMPO,"[3]; HepG2, LPS/IFN-γ plus TEMPO 300 μM for 12 h, probe 10 μM 30 min",largely suppressed
same,"intracellular fluorescence, normal conditions","[3]; HepG2, probe 10 μM, 30 min, no pretreatment",weak fluorescence
same,fluorescence fluctuations in H2O2-treated or SO3^2−-treated cells,"[3]; HepG2 pretreated with H2O2 or Na2SO3 100 μM for 30 min, probe 10 μM 30 min",negligible
same,intracellular fluorescence intensity after LPS/IFN-γ,"[3]; HepG2 pretreated with LPS 1 μg/mL and IFN-γ 50 ng/mL for 12 h, probe 10 μM 30 min",significantly increased
same,fluorescence response to O2·^− in the selectivity test,[4]; 730 nm,significant response
same,fluorescence response at 730 nm to potential interferents,"[4]; analytes 100 μM, enzyme 0.1 U·mL^−1",barely respond
same,in vivo fluorescence signal intensity in the liver region of Con A-treated mice over time,"[5]; Con A 20 mg/Kg i.v. for 2 h, probe i.v.",gradually enhanced
same,"rate of increase of hepatic photoacoustic signal, Con A-treated mice versus control mice",[5]; after injection of probe,increased faster
same,"photoacoustic signal in the liver, Con A-treated mice versus healthy mice","[5]; at 2 h, λex=710 nm",obviously higher
same,location of fluorescence signals (ex vivo),[5]; both groups (Con A-treated and control),mainly located in the liver
same,"ex vivo fluorescence signals, Con A-treated mice versus control mice","[5]; mouse, in vivo",apparently brighter
same,photoacoustic signal enhancement at 710 nm after treatment with O2·^−,[6],7 fold
same,O2·^− concentration at which fluorescence intensity reached a plateau,"[7]; probe 10 μM, 10 min, at 740 nm as printed",100 µM
same,fluorescence intensity at 730 nm increase compared with probe alone,"[7]; probe 10 μM, O2·^− 100 μM, 10 min, λex=680 nm, ethanol/PBS=1/1, pH=7.4",17 fold
same,fluorescence intensity increase after reaction with O2·^−,[7]; summary statement,17 times
